Data on one molecule can be found in patent US20140051577A1, “SUBSTITUTED 5-(BICYCLO[4.1.0]HEPT-3-EN-2-YL)PENTA-2,4-DIENES AND 5-(BICYCLO[4.1.0]HEPT-3-EN-2-YL)PENT-2-ENE-4-INES AS ACTIVE AGENTS AGAINST ABIOTIC STRESSES IN PLANTS” (priority 2011, published 2014).

For this assay, the system named is Brassica napus. In words: Drought stress test on crop plants in greenhouse, spray application, efficacy vs untreated stressed control. Format: in vivo. Conditions: dosage 25 g/ha, mean of three results. The protocol: Seeds of monocotyledonous and dicotyledonous crop plants were laid out in sandy loam in wood-fiber pots, covered with soil and cultivated in a greenhouse under good growth conditions. The test plants were treated at the early leaf stage (BBCH10-BBCH13). To ensure uniform water supply before commencement of stress, the potted plants were supplied with the maximum amount of water immediately beforehand by dam irrigation and, after application, transferred in plastic inserts in order to prevent subsequent, excessively rapid drying. The inventive compounds, formulated in the form of wettable powders (WP), wettable granules (WG), suspension concentrates (SC) or emulsion concentrates (EC), were sprayed onto the green parts of the plants as an aqueous suspension at an equivalent water application rate of 600 l/ha with addition of 0.2% wetting agent (agrotin). Substance application is followed immediately by stress treatment of the plants (cold or drought stress). […]
After the recovery phase had ended, the intensities of damage were rated in visual comparison to untreated, unstressed controls of the same age (in the case of drought stress) or the same growth stage (in the case of cold stress). The intensity of damage was first assessed as a percentage (100%=plants have died, 0%=like control plants). […]

As for `CCOC(=O)/C=C(/C)C#CC1(O)C(C)=CC(=O)C2CC21C` (centres unmarked) [I.1-394, Ethyl (2Z)-5-(2-hydroxy-1,3-dimethyl-5-oxobicyclo[4.1.0]hept-3-en-2-yl)-3-methylpent-2-en-4-ynoate], under “BRSNS as printed”, the “EF (BRSNS): efficacy, percentage reduction in the intensity of damage (second table headed TABLE A-1)” value is listed as >5%. Under “Brassica napus”, the “EF (BRSNS): efficacy, percentage reduction in the intensity of damage” value was >5%.
